In the NIST ThermoML archive (doi:10.1016/j.jct.2011.10.002):
Numbers after ± are expanded uncertainties.

Conditions: 298.15 K, 101.33 kPa, Liquid; for speed of sound: Sing-around technique in a fixed-path interferometer; for mass density: Vibrating tube method

| SMILES | speed of sound | mass density |
| --- | --- | --- |
| Cc1ccccc1N [2-methylaniline] | 1602.6 ± 1.3 m/s | 994.351 ± 0.23 kg/m3 |
| Cc1cccnc1 [3-methylpyridine] | 1424 ± 1.2 m/s | 952.002 ± 0.23 kg/m3 |
| C1CCOCC1 [tetrahydropyran] | 1269.9 ± 2.1 m/s | 879.136 ± 0.7 kg/m3 |

Continued, values first:

| speed of sound | mass density | SMILES |
| --- | --- | --- |
| 1380.1 ± 2.1 m/s | 939.802 ± 0.77 kg/m3 | Cc1ccccn1 [2-methylpyridine] |
| 1431.5 ± 1.2 m/s | 950.179 ± 0.23 kg/m3 | Cc1ccncc1 [4-methylpyridine] |
